Values quoted from earlier work in publication PMC7933701 (Biochemistry and Biophysics Reports, 2021).

Tested on: PSA
Details: peptide carrier of doxorubicin prodrug

Mu-His-Ser-Ser-Lys-Leu-Gln-Leu
hydrolysis by PSA (in words): precisely hydrolysable by PSA
